In the NIST ThermoML archive (doi:10.1021/acs.jced.6b00496):
± gives the expanded uncertainty stated by the source.

Test: xn = mol fraction of the nth substance listed
Conditions: 81.5 kPa, Liquid; for speed of sound: Sing-around technique in a fixed-path interferometer; for mass density: Vibrating tube method

CCn1cc[n+](C)c1.F[B-](F)(F)F [1-ethyl-3-methylimidazolium tetrafluoroborate] + CC(=O)N(C)C
Conditions | mass density [kg/m3] | speed of sound [m/s]
293.15 K, x1 = 0.131 | 1020.02 ± 4.1 | 1520.9 ± 3.3
293.15 K, x1 = 0.198 | 1054.86 ± 4.2 | 1544.9 ± 3.3
293.15 K, x1 = 0.2976 | 1098.69 ± 4.4 | 1566.5 ± 3.3
293.15 K, x1 = 0.3868 | 1134.17 ± 4.6 | 1581.8 ± 3.4
293.15 K, x1 = 0.4734 | 1164.33 ± 4.7 | 1594.3 ± 3.4
293.15 K, x1 = 0.563 | 1190.97 ± 4.8 | 1606.8 ± 3.5
293.15 K, x1 = 0.7089 | 1230.24 ± 5 | 1620 ± 3.5
293.15 K, x1 = 0.7973 | 1244.59 ± 5.1 | 1625.7 ± 3.6
293.15 K, x1 = 0.8821 | 1257.25 ± 5.2 | 1629.9 ± 3.6
293.15 K, x1 = 1 | 1285.95 ± 5.3 | 1640.4 ± 3.7
298.15 K, x1 = 0.131 | 1015.67 ± 4.1 | 1502.5 ± 3.3
298.15 K, x1 = 0.198 | 1050.63 ± 4.2 | 1527.6 ± 3.3
298.15 K, x1 = 0.2976 | 1094.55 ± 4.4 | 1550.4 ± 3.3
298.15 K, x1 = 0.3868 | 1130.11 ± 4.6 | 1566.4 ± 3.4
298.15 K, x1 = 0.4734 | 1160.32 ± 4.7 | 1579.8 ± 3.4
298.15 K, x1 = 0.563 | 1187.07 ± 4.8 | 1592.9 ± 3.5
298.15 K, x1 = 0.7089 | 1226.34 ± 5 | 1606.9 ± 3.5
298.15 K, x1 = 0.7973 | 1240.73 ± 5.1 | 1613 ± 3.6
298.15 K, x1 = 0.8821 | 1253.4 ± 5.1 | 1617.4 ± 3.6
298.15 K, x1 = 1 | 1282.14 ± 5.3 | 1628.4 ± 3.7
303.15 K, x1 = 0.131 | 1011.32 ± 4.1 | 1484.4 ± 3.3
303.15 K, x1 = 0.198 | 1046.39 ± 4.2 | 1510.4 ± 3.3
303.15 K, x1 = 0.2976 | 1090.43 ± 4.4 | 1534.3 ± 3.3
303.15 K, x1 = 0.3868 | 1126.06 ± 4.5 | 1551.3 ± 3.4
303.15 K, x1 = 0.4734 | 1156.33 ± 4.7 | 1565.3 ± 3.4
303.15 K, x1 = 0.563 | 1183.16 ± 4.8 | 1579.1 ± 3.5
303.15 K, x1 = 0.7089 | 1222.46 ± 5 | 1594.1 ± 3.5
303.15 K, x1 = 0.7973 | 1236.88 ± 5.1 | 1600.4 ± 3.6
303.15 K, x1 = 0.8821 | 1249.55 ± 5.1 | 1605.1 ± 3.6
303.15 K, x1 = 1 | 1278.34 ± 5.3 | 1616 ± 3.7
308.15 K, x1 = 0.131 | 1006.92 ± 4 | 1466.5 ± 3.3
308.15 K, x1 = 0.198 | 1042.17 ± 4.2 | 1493.4 ± 3.3
308.15 K, x1 = 0.2976 | 1086.31 ± 4.4 | 1518.5 ± 3.3
308.15 K, x1 = 0.3868 | 1122.03 ± 4.5 | 1536.2 ± 3.4
308.15 K, x1 = 0.4734 | 1152.37 ± 4.6 | 1551.1 ± 3.4
308.15 K, x1 = 0.563 | 1179.25 ± 4.8 | 1565.5 ± 3.5
308.15 K, x1 = 0.7089 | 1218.61 ± 5 | 1581.4 ± 3.5
308.15 K, x1 = 0.7973 | 1233.06 ± 5 | 1588 ± 3.6
308.15 K, x1 = 0.8821 | 1245.73 ± 5.1 | 1592.9 ± 3.6
308.15 K, x1 = 1 | 1274.55 ± 5.3 | 1604.9 ± 3.7
313.15 K, x1 = 0.131 | 1002.63 ± 4 | 1448.8 ± 3.3
313.15 K, x1 = 0.198 | 1037.96 ± 4.2 | 1476.5 ± 3.3
313.15 K, x1 = 0.2976 | 1082.21 ± 4.3 | 1502.7 ± 3.3
313.15 K, x1 = 0.3868 | 1118 ± 4.5 | 1521.4 ± 3.4
313.15 K, x1 = 0.4734 | 1148.41 ± 4.6 | 1536.9 ± 3.4
313.15 K, x1 = 0.563 | 1175.34 ± 4.8 | 1552.1 ± 3.5
313.15 K, x1 = 0.7089 | 1214.78 ± 4.9 | 1568.8 ± 3.5
313.15 K, x1 = 0.7973 | 1229.25 ± 5 | 1575.7 ± 3.6
313.15 K, x1 = 0.8821 | 1241.92 ± 5.1 | 1580.8 ± 3.6
313.15 K, x1 = 1 | 1270.78 ± 5.2 | 1593.4 ± 3.7
318.15 K, x1 = 0.131 | 998.322 ± 4 | 1431.2 ± 3.3
318.15 K, x1 = 0.198 | 1033.75 ± 4.1 | 1459.8 ± 3.3
318.15 K, x1 = 0.2976 | 1078.11 ± 4.3 | 1487.1 ± 3.3
318.15 K, x1 = 0.3868 | 1113.98 ± 4.5 | 1506.6 ± 3.4
318.15 K, x1 = 0.4734 | 1144.47 ± 4.6 | 1522.9 ± 3.4
318.15 K, x1 = 0.563 | 1171.44 ± 4.7 | 1538.7 ± 3.5
318.15 K, x1 = 0.7089 | 1210.93 ± 4.9 | 1556.3 ± 3.5
318.15 K, x1 = 0.7973 | 1225.46 ± 5 | 1563.5 ± 3.6
318.15 K, x1 = 0.8821 | 1238.13 ± 5.1 | 1568.9 ± 3.6
318.15 K, x1 = 1 | 1267.03 ± 5.2 | 1582 ± 3.7
323.15 K, x1 = 0.131 | 994.081 ± 4 | 1413.7 ± 3.3
323.15 K, x1 = 0.198 | 1029.41 ± 4.1 | 1443.1 ± 3.3
323.15 K, x1 = 0.2976 | 1074.03 ± 4.3 | 1471.6 ± 3.3
323.15 K, x1 = 0.3868 | 1109.98 ± 4.5 | 1491.9 ± 3.4
323.15 K, x1 = 0.4734 | 1140.55 ± 4.6 | 1509 ± 3.4
323.15 K, x1 = 0.563 | 1167.54 ± 4.7 | 1525.4 ± 3.5
323.15 K, x1 = 0.7089 | 1207.14 ± 4.9 | 1543.9 ± 3.5
323.15 K, x1 = 0.7973 | 1221.69 ± 5 | 1551.4 ± 3.6
323.15 K, x1 = 0.8821 | 1234.36 ± 5.1 | 1557 ± 3.6
323.15 K, x1 = 1 | 1263.3 ± 5.2 | 1570.6 ± 3.7
328.15 K, x1 = 0.131 | 990.013 ± 4 | 1396.4 ± 3.3
328.15 K, x1 = 0.198 | 1025.2 ± 4.1 | 1426.6 ± 3.3
328.15 K, x1 = 0.2976 | 1069.95 ± 4.3 | 1456.1 ± 3.3
328.15 K, x1 = 0.3868 | 1105.98 ± 4.5 | 1477.4 ± 3.4
328.15 K, x1 = 0.4734 | 1136.62 ± 4.6 | 1495.2 ± 3.4
328.15 K, x1 = 0.563 | 1163.66 ± 4.7 | 1512.2 ± 3.5
328.15 K, x1 = 0.7089 | 1203.38 ± 4.9 | 1531.6 ± 3.5
328.15 K, x1 = 0.7973 | 1217.94 ± 5 | 1539.4 ± 3.6
328.15 K, x1 = 0.8821 | 1230.61 ± 5 | 1545.3 ± 3.6
328.15 K, x1 = 1 | 1259.58 ± 5.2 | 1559.4 ± 3.7
333.15 K, x1 = 0.131 | 986.018 ± 4 | 1379 ± 3.3
333.15 K, x1 = 0.198 | 1021.01 ± 4.1 | 1410.2 ± 3.3
333.15 K, x1 = 0.2976 | 1065.88 ± 4.3 | 1440.9 ± 3.3
333.15 K, x1 = 0.3868 | 1101.99 ± 4.4 | 1462.9 ± 3.4
333.15 K, x1 = 0.4734 | 1132.72 ± 4.6 | 1481.5 ± 3.4
333.15 K, x1 = 0.563 | 1159.8 ± 4.7 | 1499.1 ± 3.4
333.15 K, x1 = 0.7089 | 1199.69 ± 4.9 | 1519.4 ± 3.5
333.15 K, x1 = 0.7973 | 1214.19 ± 5 | 1527.4 ± 3.6
333.15 K, x1 = 0.8821 | 1226.87 ± 5 | 1533.6 ± 3.6
333.15 K, x1 = 1 | 1255.88 ± 5.2 | 1548.2 ± 3.7
338.15 K, x1 = 0.131 | 982.059 ± 3.9 | 1361.9 ± 3.3
338.15 K, x1 = 0.198 | 1016.81 ± 4.1 | 1393.9 ± 3.3
338.15 K, x1 = 0.2976 | 1061.83 ± 4.3 | 1425.7 ± 3.3
338.15 K, x1 = 0.3868 | 1098.01 ± 4.4 | 1448.6 ± 3.4
338.15 K, x1 = 0.4734 | 1128.83 ± 4.6 | 1467.9 ± 3.4
338.15 K, x1 = 0.563 | 1155.95 ± 4.7 | 1486.1 ± 3.4
338.15 K, x1 = 0.7089 | 1195.92 ± 4.9 | 1507.3 ± 3.5
338.15 K, x1 = 0.7973 | 1210.46 ± 4.9 | 1515.6 ± 3.6
338.15 K, x1 = 0.8821 | 1223.16 ± 5 | 1528.1 ± 3.6
338.15 K, x1 = 1 | 1252.2 ± 5.2 | 1537.2 ± 3.7
343.15 K, x1 = 0.131 | 978.076 ± 3.9 | 1344.8 ± 3.3
343.15 K, x1 = 0.198 | 1012.61 ± 4.1 | 1377.7 ± 3.3
343.15 K, x1 = 0.2976 | 1057.78 ± 4.2 | 1410.6 ± 3.3
343.15 K, x1 = 0.3868 | 1094.04 ± 4.4 | 1434.4 ± 3.4
343.15 K, x1 = 0.4734 | 1124.94 ± 4.5 | 1454.4 ± 3.4
343.15 K, x1 = 0.563 | 1152.06 ± 4.7 | 1473 ± 3.4
343.15 K, x1 = 0.7089 | 1192.22 ± 4.8 | 1495.4 ± 3.5
343.15 K, x1 = 0.7973 | 1206.75 ± 4.9 | 1503.8 ± 3.6
343.15 K, x1 = 0.8821 | 1219.46 ± 5 | 1510.6 ± 3.6
343.15 K, x1 = 1 | 1248.54 ± 5.2 | 1526.2 ± 3.7
